# Laboratory results taken from ChEMBL document CHEMBL3877299, “Imidazopyridine-fused [1,3]-diazepinones part 2: Structure-activity relationships and antiproliferative activity against melanoma cells” (Eur J Med Chem, 2017).
# Columns and labels:
# [1] = Cytotoxicity against human MDA-MB-435 cells assessed as growth inhibition after 48 hrs by MTT assay; type: functional; details: MDA-MB-435, 48 h
# [2] = Growth inhibition of human CCRF-CEM cells assessed as cell growth at 10 uM incubated for 48 hrs by sulforhodamine B assay relative to control; type: functional; details: read-out: Activity
# [3] = Growth inhibition of human MOLT4 cells assessed as cell growth at 10 uM incubated for 48 hrs by sulforhodamine B assay relative to control; type: functional; details: MOLT-4, 48 h, read-out: Activity
# [4] = Growth inhibition of human SR cells assessed as cell growth at 10 uM incubated for 48 hrs by sulforhodamine B assay relative to control; type: functional; details: read-out: Activity
# [5] = Growth inhibition of human A549/ATCC cells assessed as cell growth at 10 uM incubated for 48 hrs by sulforhodamine B assay relative to control; type: functional; details: A549, 48 h, read-out: Activity
# [6] = Growth inhibition of human NCI-H23 cells assessed as cell growth at 10 uM incubated for 48 hrs by sulforhodamine B assay relative to control; type: functional; details: NCI-H23, 48 h, read-out: Activity
# [7] = Growth inhibition of human NCI-H460 cells assessed as cell growth at 10 uM incubated for 48 hrs by sulforhodamine B assay relative to control; type: functional; details: NCI-H460, 48 h, read-out: Activity
# [8] = Growth inhibition of human NCI-H522 cells assessed as cell growth at 10 uM incubated for 48 hrs by sulforhodamine B assay relative to control; type: functional; details: NCI-H522, 48 h, read-out: Activity
# [9] = Growth inhibition of human HCC2998 cells assessed as cell growth at 10 uM incubated for 48 hrs by sulforhodamine B assay relative to control; type: functional; details: HCC 2998, 48 h, read-out: Activity
# [10] = Growth inhibition of human HCT116 cells assessed as cell growth at 10 uM incubated for 48 hrs by sulforhodamine B assay relative to control; type: functional; details: HCT-116, 48 h, read-out: Activity
# [11] = Growth inhibition of human HCT15 cells assessed as cell growth at 10 uM incubated for 48 hrs by sulforhodamine B assay relative to control; type: functional; details: HCT-15, 48 h, read-out: Activity
# [12] = Growth inhibition of human M14 cells assessed as cell growth at 10 uM incubated for 48 hrs by sulforhodamine B assay relative to control; type: functional; details: M14, 48 h, read-out: Activity
# [13] = Growth inhibition of human SK-MEL-2 cells assessed as cell growth at 10 uM incubated for 48 hrs by sulforhodamine B assay relative to control; type: functional; details: SK-MEL-2, 48 h, read-out: Activity
# [14] = Growth inhibition of human SK-MEL-28 cells assessed as cell growth at 10 uM incubated for 48 hrs by sulforhodamine B assay relative to control; type: functional; details: SK-MEL-28, 48 h, read-out: Activity
# [15] = Growth inhibition of human UACC62 cells assessed as cell growth at 10 uM incubated for 48 hrs by sulforhodamine B assay relative to control; type: functional; details: UACC-62, 48 h, read-out: Activity
# [16] = Growth inhibition of human IGROV1 cells assessed as cell growth at 10 uM incubated for 48 hrs by sulforhodamine B assay relative to control; type: functional; details: IGROV-1, 48 h, read-out: Activity
# [17] = Growth inhibition of human SKOV3 cells assessed as cell growth at 10 uM incubated for 48 hrs by sulforhodamine B assay relative to control; type: functional; details: SK-OV-3, 48 h, read-out: Activity
# [18] = Growth inhibition of human 786-0 cells assessed as cell growth at 10 uM incubated for 48 hrs by sulforhodamine B assay relative to control; type: functional; details: 786-0, 48 h, read-out: Activity
# [19] = Growth inhibition of human ACHN cells assessed as cell growth at 10 uM incubated for 48 hrs by sulforhodamine B assay relative to control; type: functional; details: read-out: Activity
# [20] = Growth inhibition of human TK10 cells assessed as cell growth at 10 uM incubated for 48 hrs by sulforhodamine B assay relative to control; type: functional; details: TK-10, 48 h, read-out: Activity
# [21] = Growth inhibition of human UO31 cells assessed as cell growth at 10 uM incubated for 48 hrs by sulforhodamine B assay relative to control; type: functional; details: UO-31, 48 h, read-out: Activity
# [22] = Growth inhibition of human DU145 cells assessed as cell growth at 10 uM incubated for 48 hrs by sulforhodamine B assay relative to control; type: functional; details: DU-145, 48 h, read-out: Activity
# [23] = Growth inhibition of human MDA-MB-231 cells assessed as cell growth at 10 uM incubated for 48 hrs by sulforhodamine B assay relative to control; type: functional; details: MDA-MB-231, 48 h, read-out: Activity
# [24] = Growth inhibition of human BT549 cells assessed as cell growth at 10 uM incubated for 48 hrs by sulforhodamine B assay relative to control; type: functional; details: BT-549, 48 h, read-out: Activity
# [25] = Growth inhibition of human T47D cells assessed as cell growth at 10 uM incubated for 48 hrs by sulforhodamine B assay relative to control; type: functional; details: read-out: Activity
# [26] = target: Mitogen-activated protein kinase kinase kinase kinase 4 (Homo sapiens, UniProt O95819); experiment: Inhibition of recombinant human HGK using Ulight-FLGFTYVAP as substrate after 90 mins by LANCE assay
# Chain of Mitogen-activated protein kinase kinase kinase kinase 4 (O95819 whole entry): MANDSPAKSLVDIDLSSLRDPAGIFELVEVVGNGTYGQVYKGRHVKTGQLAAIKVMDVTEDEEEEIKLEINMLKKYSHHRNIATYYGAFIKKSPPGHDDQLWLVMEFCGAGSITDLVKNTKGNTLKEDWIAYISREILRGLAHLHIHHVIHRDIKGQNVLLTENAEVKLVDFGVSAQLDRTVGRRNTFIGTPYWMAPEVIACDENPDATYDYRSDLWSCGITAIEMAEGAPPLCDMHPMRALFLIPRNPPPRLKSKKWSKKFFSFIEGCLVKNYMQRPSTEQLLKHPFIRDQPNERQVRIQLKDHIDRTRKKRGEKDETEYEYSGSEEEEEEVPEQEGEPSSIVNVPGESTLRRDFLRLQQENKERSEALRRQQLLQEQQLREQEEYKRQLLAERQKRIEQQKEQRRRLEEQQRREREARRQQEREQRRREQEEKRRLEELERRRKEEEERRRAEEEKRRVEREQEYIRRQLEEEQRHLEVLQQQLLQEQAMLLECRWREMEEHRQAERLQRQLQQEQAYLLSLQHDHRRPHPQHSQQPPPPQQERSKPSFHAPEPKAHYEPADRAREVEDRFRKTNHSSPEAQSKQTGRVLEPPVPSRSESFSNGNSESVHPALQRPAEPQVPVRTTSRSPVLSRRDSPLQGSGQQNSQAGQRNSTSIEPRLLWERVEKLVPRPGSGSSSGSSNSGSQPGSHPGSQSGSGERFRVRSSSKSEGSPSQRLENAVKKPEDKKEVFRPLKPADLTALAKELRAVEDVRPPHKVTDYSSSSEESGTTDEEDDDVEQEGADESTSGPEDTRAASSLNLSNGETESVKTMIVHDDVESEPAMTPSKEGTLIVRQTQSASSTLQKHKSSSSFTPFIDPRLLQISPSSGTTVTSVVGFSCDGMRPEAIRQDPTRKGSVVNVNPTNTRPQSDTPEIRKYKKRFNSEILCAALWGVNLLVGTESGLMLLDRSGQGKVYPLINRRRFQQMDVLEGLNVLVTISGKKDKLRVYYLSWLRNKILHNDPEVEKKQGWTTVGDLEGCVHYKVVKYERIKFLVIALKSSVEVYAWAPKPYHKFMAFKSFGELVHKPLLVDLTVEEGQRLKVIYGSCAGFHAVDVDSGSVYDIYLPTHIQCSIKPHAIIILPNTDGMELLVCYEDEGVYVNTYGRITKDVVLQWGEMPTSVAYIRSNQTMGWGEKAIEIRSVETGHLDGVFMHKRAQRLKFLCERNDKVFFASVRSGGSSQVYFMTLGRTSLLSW
# [27] = Growth inhibition of human HOP92 cells assessed as cell growth at 10 uM incubated for 48 hrs by sulforhodamine B assay relative to control; type: functional; details: HOP-92, 48 h, read-out: Activity
Structure (SMILES),GI50 [1] [nM],growth at 10 µM [2] [%],growth at 10 µM [3] [%],growth at 10 µM [4] [%],growth at 10 µM [5] [%],growth at 10 µM [6] [%],growth at 10 µM [7] [%],growth at 10 µM [8] [%],growth at 10 µM [9] [%],growth at 10 µM [10] [%],growth at 10 µM [11] [%],growth at 10 µM [12] [%],growth at 10 µM [13] [%],growth at 10 µM [14] [%],growth at 10 µM [15] [%],growth at 10 µM [16] [%],growth at 10 µM [17] [%],growth at 10 µM [18] [%],growth at 10 µM [19] [%],growth at 10 µM [20] [%],other results
C[C@@H]1NC(c2ccc3ccccc3c2)=Nc2nc3ccccn3c2C1=O,1400,52.9,34.5,30.5,39.5,46.1,15.2,29.4,77,18.3,33.8,19.8,36.3,59.9,48.8,32.1,40.5,69.3,55.4,64.4,growth at 10 µM [21]: 55.6%; growth at 10 µM [22]: 73.3%; growth at 10 µM [23]: 52.5%; growth at 10 µM [24]: 35.1%; growth at 10 µM [25]: 41.7%
CC(C)(C)OC[C@@H]1NC(c2ccc(Br)cc2)=Nc2nc3ccccn3c2C1=O,950,67.8,53.7,35.4,51.6,71.5,41.3,33.4,90.9,43.7,44.1,46.4,49.2,68.6,53.6,40.8,64.3,94.2,75.3,95.1,IC50 [26]: 5600 nM; growth at 10 µM [21]: 52.1%; growth at 10 µM [22]: 82.7%; growth at 10 µM [23]: 61.5%; growth at 10 µM [24]: 72.5%; growth at 10 µM [25]: 61.9%
C[C@@H]1NC(c2ccc(Cl)cc2Cl)=Nc2nc3ccccn3c2C1=O,1150,56.6,50.4,33,40.6,61.4,18.7,28.9,75.4,28.1,35.1,31.1,38.2,60.7,40.5,41.9,50.1,73.2,60.2,74.5,IC50 [26]: > 100000 nM; growth at 10 µM [27]: 55.9%; growth at 10 µM [21]: 52.4%; growth at 10 µM [22]: 64.8%; growth at 10 µM [23]: 64.6%; growth at 10 µM [24]: 55.6%; growth at 10 µM [25]: 64.3%
C[C@@H]1NC(c2ccc(Cl)cc2)=Nc2nc3ccccn3c2C1=O,5000,90.8,88.5,46.7,85.8,81.4,96.1,66.3,91.6,97,77.6,91,84.8,92.8,78.6,50.7,75.5,108,88.3,114,growth at 10 µM [21]: 68.2%; growth at 10 µM [22]: 100%; growth at 10 µM [23]: 76%; growth at 10 µM [24]: 93.6%; growth at 10 µM [25]: 81.4%
